Results on 21 compounds are retold here after PubChem BioAssay AID328 (DTP/NCI, 2004).

The test system of the assay is BDF1 mice, P388 leukemia ip, median survival T/C. Put plainly: NCI In Vivo Anticancer Drug Screen. Data for tumor model P388 Leukemia (intraperitoneal) in B6D2F1 (BDF1) mice. The following applies: endpoint: median survival time, higher = longer survival. An outline of the steps:
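T/C = treated-group survival ÷ vehicle-control survival; tumour transplanted into mice before dosing.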

[1] abbreviates: dose: 100.0 mg/kg/injection, schedule: Q04DX003 (ip), vehicle: saline with Tween-80.
The mark [2] stands for this setting: dose: 400.0 mg/kg/injection, schedule: Q04DX003 (ip), vehicle: saline with Tween-80.
Setting [3] is: dose: 100.0 mg/kg/injection, schedule: Q04DX003 (ip), vehicle: Klucel (hydroxypropylcellulose) (HPC).
[4] abbreviates: dose: 200.0 mg/kg/injection, schedule: Q04DX003 (ip), vehicle: Klucel (hydroxypropylcellulose) (HPC).
Setting [5] is: dose: 400.0 mg/kg/injection, schedule: Q04DX003 (ip), vehicle: Klucel (hydroxypropylcellulose) (HPC).
[6] abbreviates: dose: 25.0 mg/kg/injection, schedule: Q04DX003 (ip), vehicle: saline.
The mark [7] stands for this setting: dose: 50.0 mg/kg/injection, schedule: Q01DX009 (ip), vehicle: saline.
Setting [8] is: dose: 100.0 mg/kg/injection, schedule: Q01DX009 (ip), vehicle: saline.
Where [9] appears, read: dose: 100.0 mg/kg/injection, schedule: Q04DX003 (ip), vehicle: saline.
Where [10] appears, read: dose: 200.0 mg/kg/injection, schedule: Q04DX003 (ip), vehicle: saline.
The mark [11] stands for this setting: dose: 400.0 mg/kg/injection, schedule: Q01DX009 (ip), vehicle: saline.
Setting [12] is: dose: 400.0 mg/kg/injection, schedule: Q04DX003 (ip), vehicle: saline.
Setting [13] is: dose: 100.0 mg/kg/injection, schedule: Q04DX003 (sc), vehicle: olive oil, sesame oil, peanut oil.
Where [14] appears, read: dose: 200.0 mg/kg/injection, schedule: Q04DX003 (sc), vehicle: olive oil, sesame oil, peanut oil.
The mark [15] stands for this setting: dose: 400.0 mg/kg/injection, schedule: Q04DX003 (sc), vehicle: olive oil, sesame oil, peanut oil.
The mark [16] stands for this setting: dose: 200.0 mg/kg/injection, schedule: Q01DX009 (ip), vehicle: saline.

Molecules are shown by their SMILES. Several values for one entry are separate records, joined by “and”; a condition that tells them apart may be missing. Identical values can stand only once. Toxic doses and inconclusive results are not listed.

Turning to `CC(=O)C1C(=O)OC2(C)C(=O)C3=COC(/C=C\C(C)=C/C(C)C)=CC3=CC12` (stereo not drawn), the T/C by setting is: (dose: 75.0 mg/kg/injection, schedule: Q01DX009 (ip), vehicle: saline with Tween-80) 107 % of control; (dose: 150.0 mg/kg/injection, schedule: Q01DX009 (ip), vehicle: saline with Tween-80) 151 % of control.

With `CN(N=O)P(=O)(Nc1ccccc1)Nc1ccccc1`, the T/C (dose: 25.0 mg/kg/injection, schedule: Q04DX003 (ip), vehicle: other) was 100 % of control; the T/C (dose: 50.0 mg/kg/injection, schedule: Q04DX003 (ip), vehicle: other) was 100 % of control; the T/C (dose: 100.0 mg/kg/injection, schedule: Q04DX003 (ip), vehicle: other) was 95 % of control.

Turning to `CCCO/C(N)=N/OS(=O)(=O)c1ccccc1`, the T/C is, setting by setting: under setting [1], 97 % of control; (dose: 200.0 mg/kg/injection, schedule: Q04DX003 (ip), vehicle: saline with Tween-80) 99 % of control; under setting [2], 96 % of control.

Consider `COc1ccc(NC(=O)Oc2ccc(-c3ccccc3)cc2Br)cc1`, for which the T/C by setting is: under setting [3], 91 % of control; under setting [4], 95 % of control; under setting [5], 91 % of control.

As for `CS(=O)(=O)Nc1ccccc1O`, the T/C is 96 % of control (dose: 50.0 mg/kg/injection, schedule: Q01DX009 (ip), vehicle: other); 104 % of control (dose: 100.0 mg/kg/injection, schedule: Q01DX009 (ip), vehicle: other); 97 % of control (dose: 200.0 mg/kg/injection, schedule: Q01DX009 (ip), vehicle: other).

Take `COC12C(COC(N)=O)C3=C(C(=O)C(C)=C(N4CC4)C3=O)N1CC1NC12` (stereo not drawn): the T/C reads like this: (dose: 0.21 mg/kg/injection, schedule: Q04DX003 (ip), vehicle: saline with Tween-80) 235 % of control; (dose: 0.33 mg/kg/injection, schedule: Q04DX003 (ip), vehicle: saline with Tween-80) 200 % of control; (dose: 0.5 mg/kg/injection, schedule: Q04DX003 (ip), vehicle: saline with Tween-80) 190 % of control; (dose: 0.75 mg/kg/injection, schedule: Q04DX003 (ip), vehicle: saline with Tween-80) 255 % of control.

Consider `CN(C)c1ccc(C(O)(Cc2cccc(C#N)c2)c2ccc(N(C)C)cc2)cc1`, for which the T/C reads like this: (dose: 100.0 mg/kg/injection, schedule: Q04DX002 (ip), vehicle: saline with Tween-80) 95 % of control; (dose: 200.0 mg/kg/injection, schedule: Q04DX002 (ip), vehicle: saline with Tween-80) 89 % of control; (dose: 400.0 mg/kg/injection, schedule: Q04DX002 (ip), vehicle: saline with Tween-80) 98 % of control.

For `CCOCN(COCC)c1cccc(Cl)c1`, the T/C by setting is: (dose: 50.0 mg/kg/injection, schedule: Q01DX009 (ip), vehicle: saline with Tween-80) 100 % of control and 115 % of control; (dose: 100.0 mg/kg/injection, schedule: Q01DX009 (ip), vehicle: saline with Tween-80) 118 % of control; (dose: 200.0 mg/kg/injection, schedule: Q01DX009 (ip), vehicle: saline with Tween-80) 118 % of control.

Consider `C#CCOCCBr`, for which the T/C (dose: 22.0 mg/kg/injection, schedule: Q01DX009 (ip), vehicle: saline) was 122 % of control.

For the compound `COc1ccc(/C=C/C(=N\O)c2ccc(OC)c(OC)c2)cc1OC`, the T/C (dose: 25.0 mg/kg/injection, schedule: Q01DX009 (ip), vehicle: saline) was 118 % of control; the T/C under setting [6] was 105 % of control; the T/C under setting [7] is 97 % of control; the T/C (dose: 50.0 mg/kg/injection, schedule: Q04DX003 (ip), vehicle: saline) was 96 % of control; the T/C under setting [8] is 120 % of control; the T/C under setting [9] was 105 % of control. Further, the T/C was 114 % of control under setting [10], 103 % of control under setting [11] and 105 % of control under setting [12].

As to `CC12CCC(=O)C=C1CCC1C2CCC2(C)C(OP(=O)(N3CC3)N3CC3)CCC12` (stereo not drawn), the T/C under setting [1] was 110 % of control.

In the case of `CCCCCCCNC(C)(C)C(SS)c1ccc(Cl)cc1` (stereo not drawn), the T/C runs as follows: under setting [13], 100 % of control; under setting [14], 109 % of control; under setting [15], 100 % of control.

In the case of `CC(O)CN1CNC(=S)NC1` (stereo not drawn), the T/C under setting [7] was 99 % of control, the T/C under setting [8] is 101 % of control and the T/C under setting [16] is 106 % of control.

For the compound `N#Cc1cnc2nc(N)nc(N)c2c1`, the T/C is, setting by setting: under setting [7], 104 % of control; under setting [8], 107 % of control; under setting [9], 108 % of control; under setting [16], 117 % of control; under setting [10], 116 % of control.

As for `O=C(NC1CCCCC1)OCC#CC#CCOC(=O)NC1CCCCC1`, the T/C was 95 % of control under setting [3] and 100 % of control under setting [4].

For the compound `Cc1ccc(NC(=O)c2ccc(C)c([N+](=O)[O-])c2)c(C)c1`, the T/C (dose: 100.0 mg/kg/injection, schedule: Q01DX008 (sc), vehicle: olive oil, sesame oil, peanut oil) was 87 % of control; the T/C under setting [13] is 88 % of control; the T/C (dose: 200.0 mg/kg/injection, schedule: Q01DX008 (sc), vehicle: olive oil, sesame oil, peanut oil) is 100 % of control; the T/C under setting [14] was 88 % of control; the T/C (dose: 400.0 mg/kg/injection, schedule: Q01DX008 (sc), vehicle: olive oil, sesame oil, peanut oil) is 87 % of control; the T/C under setting [15] was 92 % of control.

In the case of `FC(F)(Cl)c1nc2nc(Cl)c(Cl)nc2[nH]1`, the T/C is, setting by setting: (dose: 266.0 mg/kg/injection, schedule: Q04DX003 (ip), vehicle: other) 100 % of control; (dose: 400.0 mg/kg/injection, schedule: Q04DX003 (ip), vehicle: other) 108 % of control; (dose: 600.0 mg/kg/injection, schedule: Q04DX003 (ip), vehicle: other) 108 % of control.

Turning to `O=c1[nH]cc(CCCO)c(=O)[nH]1`, the T/C by setting is: under setting [7], 91 % of control; under setting [8], 102 % of control; under setting [9], 109 % of control; under setting [16], 100 % of control; under setting [10], 100 % of control; under setting [11], 100 % of control. For the same compound, under setting [12], the T/C was 109 % of control.

With `COc1cc(/C=N\NC(=O)c2cccc(Cl)c2)ccc1N(CCCl)CCCl`, the T/C is 173 % of control (dose: 264.0 mg/kg/injection, schedule: Q04DX003 (ip), vehicle: saline with Tween-80); 234 % of control under setting [2]; 260 % of control (dose: 600.0 mg/kg/injection, schedule: Q04DX003 (ip), vehicle: saline with Tween-80).

For the compound `Cc1[nH]c(N)nc(=S)c1CCC(=O)O`, the T/C is 100 % of control under setting [3], 104 % of control under setting [4] and 95 % of control under setting [5].

Consider `Nc1nncs1`, for which the T/C was 118 % of control (dose: 7.8 mg/kg/injection, schedule: Q01DX010 (ip), vehicle: saline); 100 % of control (dose: 12.5 mg/kg/injection, schedule: Q01DX010 (ip), vehicle: saline); 154 % of control (dose: 15.6 mg/kg/injection, schedule: Q01DX010 (ip), vehicle: saline); 163 % of control (dose: 25.0 mg/kg/injection, schedule: Q01DX010 (ip), vehicle: saline); 118 % of control under setting [6]; 190 % of control (dose: 50.0 mg/kg/injection, schedule: Q01DX010 (ip), vehicle: saline). In addition, the T/C reads like this: (dose: 100.0 mg/kg/injection, schedule: Q01DX010 (ip), vehicle: saline) 100 % of control; under setting [9], 172 % of control; (dose: 108.0 mg/kg/injection, schedule: Q04DX003 (ip), vehicle: saline) 154 % of control; (dose: 173.0 mg/kg/injection, schedule: Q04DX003 (ip), vehicle: other) 179 % of control; (dose: 180.0 mg/kg/injection, schedule: Q04DX003 (ip), vehicle: saline) 208 % of control; under setting [10], 181 % of control. The T/C (dose: 288.0 mg/kg/injection, schedule: Q04DX003 (ip), vehicle: other) was 212 % of control.
